{
  "source": "ChEMBL document CHEMBL4138146",
  "about": "“A Schmidt rearrangement-mediated synthesis of novel tetrahydro-benzo[1,4]diazepin-5-ones as potential anticancer and antiprotozoal agents” (Eur J Med Chem, 2017)",
  "type_in_all_cases": "functional",
  "key": {"HOP-92 [1]": {"system": "HOP-92", "assay": "Growth inhibition of human HOP92 cells assessed as cell growth at 10^-4 M incubated for 48 hrs by sulforhodamine B assay relative to control", "details": "HOP-92, 48 h, read-out: Activity"}, "MCF7 [2]": {"system": "MCF7", "assay": "Growth inhibition of human MCF7 cells assessed as cell growth at 10^-6 M incubated for 48 hrs by sulforhodamine B assay relative to control", "details": "MCF7, 48 h, read-out: Activity"}, "DU-145 [3]": {"system": "DU-145", "assay": "Growth inhibition of human DU145 cells assessed as cell growth at 10^-8 M incubated for 48 hrs by sulforhodamine B assay relative to control", "details": "DU-145, 48 h, read-out: Activity"}, "BT-549 [4]": {"system": "BT-549", "assay": "Growth inhibition of human BT549 cells assessed as cell growth at 10^-8 M incubated for 48 hrs by sulforhodamine B assay relative to control", "details": "BT-549, 48 h, read-out: Activity"}, "A498 [5]": {"system": "A498", "assay": "Growth inhibition of human A498 cells assessed as cell growth at 10^-7 M incubated for 48 hrs by sulforhodamine B assay relative to control", "details": "A498, 48 h, read-out: Activity"}, "NCI/ADR-RES [6]": {"system": "NCI/ADR-RES", "assay": "Growth inhibition of human NCI/ADR-RES cells assessed as cell growth at 10^-6 M incubated for 48 hrs by sulforhodamine B assay relative to control", "details": "read-out: Activity"}, "KM12 [7]": {"system": "KM12", "assay": "Growth inhibition of human KM12 cells assessed as cell growth at 10^-5 M incubated for 48 hrs by sulforhodamine B assay relative to control", "details": "KM12, 48 h, read-out: Activity"}, "HT-29": {"system": "HT-29", "assay": "Growth inhibition of human HT-29 cells assessed as cell growth at 10^-6 M incubated for 48 hrs by sulforhodamine B assay relative to control", "details": "HT-29, 48 h, read-out: Activity"}, "CCRF-CEM": {"system": "CCRF-CEM", "assay": "Growth inhibition of human CCRF-CEM cells assessed as cell growth at 10^-4 M incubated for 48 hrs by sulforhodamine B assay relative to control", "details": "read-out: Activity"}, "HOP-62": {"system": "HOP-62", "assay": "Growth inhibition of human HOP62 cells assessed as cell growth at 10^-6 M incubated for 48 hrs by sulforhodamine B assay relative to control", "details": "HOP-62, 48 h, read-out: Activity"}, "NCI-H522": {"system": "NCI-H522", "assay": "Growth inhibition of human NCI-H522 cells assessed as cell growth at 10^-8 M incubated for 48 hrs by sulforhodamine B assay relative to control", "details": "NCI-H522, 48 h, read-out: Activity"}, "HCC 2998": {"system": "HCC 2998", "assay": "Growth inhibition of human HCC2998 cells assessed as cell growth at 10^-4 M incubated for 48 hrs by sulforhodamine B assay relative to control", "details": "HCC 2998, 48 h, read-out: Activity"}, "NCI-H460": {"system": "NCI-H460", "assay": "Growth inhibition of human NCI-H460 cells assessed as cell growth at 10^-7 M incubated for 48 hrs by sulforhodamine B assay relative to control", "details": "NCI-H460, 48 h, read-out: Activity"}, "OVCAR-4": {"system": "OVCAR-4", "assay": "Growth inhibition of human OVCAR4 cells assessed as cell growth at 10^-5 M incubated for 48 hrs by sulforhodamine B assay relative to control", "details": "OVCAR-4, 48 h, read-out: Activity"}, "MDA-MB-231": {"system": "MDA-MB-231", "assay": "Growth inhibition of human MDA-MB-231 cells assessed as cell growth at 10^-4 M incubated for 48 hrs by sulforhodamine B assay relative to control", "details": "MDA-MB-231, 48 h, read-out: Activity"}, "OVCAR-3": {"system": "OVCAR-3", "assay": "Growth inhibition of human OVCAR3 cells assessed as cell growth at 10^-5 M incubated for 48 hrs by sulforhodamine B assay relative to control", "details": "OVCAR-3, 48 h, read-out: Activity"}, "SNB-75": {"system": "SNB-75", "assay": "Growth inhibition of human SNB75 cells assessed as cell growth at 10^-4 M incubated for 48 hrs by sulforhodamine B assay relative to control", "details": "SNB-75, 48 h, read-out: Activity"}, "SK-MEL-5": {"system": "SK-MEL-5", "assay": "Growth inhibition of human SK-MEL-5 cells assessed as cell growth at 10^-6 M incubated for 48 hrs by sulforhodamine B assay relative to control", "details": "SK-MEL-5, 48 h, read-out: Activity"}, "BT-549 [8]": {"system": "BT-549", "assay": "Growth inhibition of human BT549 cells assessed as cell growth at 10^-6 M incubated for 48 hrs by sulforhodamine B assay relative to control", "details": "BT-549, 48 h, read-out: Activity"}, "M14": {"system": "M14", "assay": "Growth inhibition of human M14 cells assessed as cell growth at 10^-6 M incubated for 48 hrs by sulforhodamine B assay relative to control", "details": "M14, 48 h, read-out: Activity"}, "HCT-15": {"system": "HCT-15", "assay": "Growth inhibition of human HCT15 cells assessed as cell growth at 10^-7 M incubated for 48 hrs by sulforhodamine B assay relative to control", "details": "HCT-15, 48 h, read-out: Activity"}, "KM12 [9]": {"system": "KM12", "assay": "Growth inhibition of human KM12 cells assessed as cell growth at 10^-6 M incubated for 48 hrs by sulforhodamine B assay relative to control", "details": "KM12, 48 h, read-out: Activity"}, "U-251": {"system": "U-251", "assay": "Growth inhibition of human U251 cells assessed as cell growth at 10^-5 M incubated for 48 hrs by sulforhodamine B assay relative to control", "details": "U-251, 48 h, read-out: Activity"}, "NCI/ADR-RES [10]": {"system": "NCI/ADR-RES", "assay": "Growth inhibition of human NCI/ADR-RES cells assessed as cell growth at 10^-7 M incubated for 48 hrs by sulforhodamine B assay relative to control", "details": "read-out: Activity"}, "HCT-116": {"system": "HCT-116", "assay": "Growth inhibition of human HCT116 cells assessed as cell growth at 10^-7 M incubated for 48 hrs by sulforhodamine B assay relative to control", "details": "HCT-116, 48 h, read-out: Activity"}, "NCI-H226": {"system": "NCI-H226", "assay": "Growth inhibition of human NCI-H226 cells assessed as cell growth at 10^-4 M incubated for 48 hrs by sulforhodamine B assay relative to control", "details": "NCI-H226, 48 h, read-out: Activity"}, "SW-620": {"system": "SW-620", "assay": "Growth inhibition of human SW620 cells assessed as cell growth at 10^-4 M incubated for 48 hrs by sulforhodamine B assay relative to control", "details": "SW-620, 48 h, read-out: Activity"}, "MCF7 [11]": {"system": "MCF7", "assay": "Growth inhibition of human MCF7 cells assessed as cell growth at 10^-7 M incubated for 48 hrs by sulforhodamine B assay relative to control", "details": "MCF7, 48 h, read-out: Activity"}, "DU-145 [12]": {"system": "DU-145", "assay": "Growth inhibition of human DU145 cells assessed as cell growth at 10^-7 M incubated for 48 hrs by sulforhodamine B assay relative to control", "details": "DU-145, 48 h, read-out: Activity"}, "A498 [13]": {"system": "A498", "assay": "Growth inhibition of human A498 cells assessed as cell growth at 10^-8 M incubated for 48 hrs by sulforhodamine B assay relative to control", "details": "A498, 48 h, read-out: Activity"}, "RXF 393": {"system": "RXF 393", "assay": "Growth inhibition of human RXF393 cells assessed as cell growth at 10^-7 M incubated for 48 hrs by sulforhodamine B assay relative to control", "details": "RXF 393, 48 h, read-out: Activity"}, "T47D": {"system": "T47D", "assay": "Growth inhibition of human T47D cells assessed as cell growth at 10^-7 M incubated for 48 hrs by sulforhodamine B assay relative to control", "details": "read-out: Activity"}, "BT-549 [14]": {"system": "BT-549", "assay": "Growth inhibition of human BT549 cells assessed as cell growth at 10^-7 M incubated for 48 hrs by sulforhodamine B assay relative to control", "details": "BT-549, 48 h, read-out: Activity"}, "HOP-92 [15]": {"system": "HOP-92", "assay": "Growth inhibition of human HOP92 cells assessed as cell growth at 10^-7 M incubated for 48 hrs by sulforhodamine B assay relative to control", "details": "HOP-92, 48 h, read-out: Activity"}},
  "data": [
    {"smiles": "CCCCOc1nc2ccccc2cc1C1CNC(=O)c2ccccc2N1", "note": "(centres undefined)", "values": [
      {"measurement": "growth at 100 µM", "setting": "HOP-92 [1]", "value": -38, "unit": "%"},
      {"measurement": "growth at 1 µM", "setting": "MCF7 [2]", "value": 62, "unit": "%"},
      {"measurement": "growth at 0.01 µM", "setting": "DU-145 [3]", "value": 101, "unit": "%"},
      {"measurement": "growth at 0.01 µM", "setting": "BT-549 [4]", "value": 105, "unit": "%"},
      {"measurement": "growth at 0.1 µM", "setting": "A498 [5]", "value": 62, "unit": "%"},
      {"measurement": "growth at 1 µM", "setting": "NCI/ADR-RES [6]", "value": 70, "unit": "%"},
      {"measurement": "growth at 10 µM", "setting": "KM12 [7]", "value": 17, "unit": "%"},
      {"measurement": "growth at 1 µM", "setting": "HT-29", "value": 98, "unit": "%"},
      {"measurement": "growth at 100 µM", "setting": "CCRF-CEM", "value": -17, "unit": "%"},
      {"measurement": "growth at 1 µM", "setting": "HOP-62", "value": 78, "unit": "%"},
      {"measurement": "growth at 0.01 µM", "setting": "NCI-H522", "value": 90, "unit": "%"},
      {"measurement": "growth at 100 µM", "setting": "HCC 2998", "value": -20, "unit": "%"},
      {"measurement": "growth at 0.1 µM", "setting": "NCI-H460", "value": 102, "unit": "%"},
      {"measurement": "growth at 10 µM", "setting": "OVCAR-4", "value": 37, "unit": "%"},
      {"measurement": "growth at 100 µM", "setting": "MDA-MB-231", "value": -53, "unit": "%"},
      {"measurement": "growth at 10 µM", "setting": "OVCAR-3", "value": -53, "unit": "%"},
      {"measurement": "growth at 100 µM", "setting": "SNB-75", "value": -79, "unit": "%"},
      {"measurement": "growth at 1 µM", "setting": "SK-MEL-5", "value": 73, "unit": "%"},
      {"measurement": "growth at 1 µM", "setting": "BT-549 [8]", "value": 84, "unit": "%"},
      {"measurement": "growth at 1 µM", "setting": "M14", "value": 61, "unit": "%"},
      {"measurement": "growth at 0.1 µM", "setting": "HCT-15", "value": 98, "unit": "%"},
      {"measurement": "growth at 1 µM", "setting": "KM12 [9]", "value": 85, "unit": "%"},
      {"measurement": "growth at 10 µM", "setting": "U-251", "value": 12, "unit": "%"},
      {"measurement": "growth at 0.1 µM", "setting": "NCI/ADR-RES [10]", "value": 97, "unit": "%"},
      {"measurement": "growth at 0.1 µM", "setting": "HCT-116", "value": 101, "unit": "%"},
      {"measurement": "growth at 100 µM", "setting": "NCI-H226", "value": -32, "unit": "%"},
      {"measurement": "growth at 100 µM", "setting": "SW-620", "value": -24, "unit": "%"},
      {"measurement": "growth at 0.1 µM", "setting": "MCF7 [11]", "value": 91, "unit": "%"},
      {"measurement": "growth at 0.1 µM", "setting": "DU-145 [12]", "value": 101, "unit": "%"},
      {"measurement": "growth at 0.01 µM", "setting": "A498 [13]", "value": 82, "unit": "%"},
      {"measurement": "growth at 0.1 µM", "setting": "RXF 393", "value": 86, "unit": "%"},
      {"measurement": "growth at 0.1 µM", "setting": "T47D", "value": 99, "unit": "%"},
      {"measurement": "growth at 0.1 µM", "setting": "BT-549 [14]", "value": 104, "unit": "%"},
      {"measurement": "growth at 0.1 µM", "setting": "HOP-92 [15]", "value": 80, "unit": "%"}
    ]}
  ]
}
